From patent US6869791B2, “Method for sterilizing transformed cells” (Sumitomo Chemical Company, Ltd., priority 2000, dated 2005)
Read-outs that look alike come from different tables or passages of the source.

Columns and labels:
[1] = system: E. coli JM105/pYHNK 2 strain; format: cell-based, Escherichia coli
[2] = system: esterase in culture broth of E. coli JM105/pYHNK 2 strain
Description: 0.02 g of N-benzylazetidin-2-carboxyilic acid ethyl ester, 1.0 ml t-butyl methyl ether and 3.5 ml of 100 mM monopotassium phosphate-dipotassium phosphate buffer (pH 7.0) were added in a 10 ml threaded test tube and kept at 35′ for 15 minutes. 200 μl of the esterase solution was put in the test tube to measure its esterase activity and shaken reciprocally (120 str/min) at 35° C. for 16 minutes. Then 400% 1 of the mixed solution was centrifuged (12000 rpm, 5 minutes) after 1 ml t-butyl methyl ether was added and stirred. 200 μl of the obtained aqueous phase was analyzed quantitatively (by absolute calibration curve method) with respect to N-benzylazetidin-2-carboxylic acid by high performance liquid chromatography after dissolved in 20 mM phosphate acid monopotassium water/acetonitrile=90/10 and filtered by a 0.2 μl filter.

[3] = system: esterase derived from Arthrobacter SC-6-98-28 in culture broth of E. coli JM105/pEAR5 strain; settings: stirred 24 hours at 30° C.
Description: Measurement of the Esterase Activity in Example 13 and 14:
To 5 ml of a diluted solution of the culture broth or sterilized solution obtained by the pre sent method was added 1 g of 2,2-dichloro-3-(1-propenyl)cyclopropane-1-carboxylic acid methyl ester (1R/1S=50/50, trans/cis98/2) and the resulting mixture was stirred at 45° C. for 30 minutes while maintaining the pH at 10.0. A portion of the reaction solution was sampled, acidified with hydrochloric acid, and extracted with ethyl acetate. The extract solution was analyzed by gas-chromatography to measure the hydrolysis rate (Internal standard: methyl cinnamate, column: HR20M 0.53 φ, 30 m, 1 μ, ULBON). The esterase activity was calculated from the hydrolysis rate.

[4] = system: E. coli JM 105/pCC160S189Y363term strain; settings: stirred 24 hours at 30° C.
Description: (§1) Number of viable cells was determined by the following method.
(§2) About 1 ml of a sample solution to be measured with the number of viable cells was diluted with physiological saline cooled to 4° C. 100 μl of the diluted solution was applied onto a LB-medium plate (L-Broth Ager (manufactured by BIO 101 Company, Ltd) containing ampicilline at a concentration of 100 μ/ml and kept at 37° C. for 1 to 2 days. Thereafter, number of the viable cells was calculated from the number of colonies grown thereon.

[5] = system: E. coli JM105/pEAR5 strain; settings: stirred 24 hours at 30° C.
Description: as §1, §2

[6] = system: esterase derived from Chromobacterium SC-YM-1 (160S, 189Y mutant) in culture broth of E. coli JM 105/pCC160S189Y363term strain; settings: stirred 24 hours at 30° C.
Description: Measurement of the enzyme activity was performed by using p-nitrophenyl acetate (pNPA) as a substrate. A sample enzyme solution was added to a 3.0 ml of 100 mM phosphate buffer solution (pH 7.5) containing the substrate at a concentration of 5 mM and the resulting mixture is maintained at 37° C. An amount of liberated p-nitrophenol was measured by the increase of absorbance at 405 nm.

[7] = Example 9: 40 ml culture broth + 10 ml acetone, stirred 24 hours at 30° C.
[8] = Example 10: 40 ml culture broth + 10 ml acetone, stirred 6 hours at 30° C.
[9] = Example 11: 40 ml culture broth + 10 ml acetone, stirred 48 hours at 30° C.
[10] = Example 12: 40 ml culture broth + 6.5 ml acetone, stirred 24 hours at 30° C.
[11] = Example 1: 40 ml culture broth + 10 ml ethanol, stirred 24 hours at 30° C.
[12] = Example 2: 40 ml culture broth + 10 ml ethanol, stirred 6 hours at 30° C.
[13] = Example 3: 40 ml culture broth + 10 ml ethanol, stirred 48 hours at 30° C.
[14] = Example 4: 42.5 ml culture broth + 7.5 ml ethanol, stirred 24 hours at 30° C.
[15] = Example 13: 45 g culture broth + 5 g ethanol
[16] = Example 14: 37.5 g culture broth + 12.5 g ethanol
[17] = Example 15: 45 g culture broth + 5 g ethanol
[18] = Example 16: 37.5 g culture broth + 12.5 g ethanol
[19] = Example 5: 40 ml culture broth + 10 ml methanol, stirred 24 hours at 30° C.
[20] = Example 6: 40 ml culture broth + 10 ml methanol, stirred 6 hours at 30° C.
[21] = Example 7: 40 ml culture broth + 10 ml methanol, stirred 48 hours at 30° C.
[22] = Example 8: 40 ml culture broth + 10 ml methanol, stirred 5 hours at 25° C.

## CC(C)=O [acetone]
[1]; [7]
  viable cell number: 0 cfu/ml
[1]; [8]
  viable cell number: 0 cfu/ml
[1]; [9]
  viable cell number: 0 cfu/ml
[1]; [10]
  viable cell number: 0 cfu/ml
[2]; [7]
  esterase activity of the mixed solution, relative to culture broth (1): ≥ 95%
[2]; [8]
  esterase activity of the mixed solution, relative to culture broth (1): ≥ 95%
[2]; [9]
  esterase activity of the mixed solution, relative to culture broth (1): ≥ 95%
[2]; [10]
  esterase activity of the mixed solution, relative to culture broth (1): ≥ 95%

## CCO [ethanol]
[1]; [11]
  viable cell number: 0 cfu/ml
[1]; [12]
  viable cell number: 0 cfu/ml
[1]; [13]
  viable cell number: 0 cfu/ml
[1]; [14]
  viable cell number: 0 cfu/ml
[3]; [15]
  esterase activity of the solution, relative to culture broth (2): ≥ 95%
[3]; [16]
  esterase activity of the solution, relative to culture broth (2): ≥ 95%
[4]; [17]
  viable cell number: 0 cfu/ml
[4]; [18]
  viable cell number: 0 cfu/ml
[5]; [15]
  viable cell number: 0 cfu/ml
[5]; [16]
  viable cell number: 0 cfu/ml
[6]; [17]
  esterase activity of the solution, relative to culture broth (3): ≥ 95%
[6]; [18]
  esterase activity of the solution, relative to culture broth (3): ≥ 95%
[2]; [11]
  esterase activity of the mixed solution, relative to culture broth (1): ≥ 95%
[2]; [12]
  esterase activity of the mixed solution, relative to culture broth (1): ≥ 95%
[2]; [13]
  esterase activity of the mixed solution, relative to culture broth (1): ≥ 95%
[2]; [14]
  esterase activity of the mixed solution, relative to culture broth (1): ≥ 95%

## CO [methanol]
[1]; [19]
  viable cell number: 0 cfu/ml
[1]; [20]
  viable cell number: 0 cfu/ml
[1]; [21]
  viable cell number: 0 cfu/ml
[1]; [22]
  viable cell number: 0 cfu/ml
[2]; [19]
  esterase activity of the mixed solution, relative to culture broth (1): ≥ 95%
[2]; [20]
  esterase activity of the mixed solution, relative to culture broth (1): ≥ 95%
[2]; [21]
  esterase activity of the mixed solution, relative to broth solution (1): ≥ 95%
[2]; [22]
  esterase activity of the mixed solution, relative to culture broth (1): ≥ 92%
